doi:10.1101/2023.12.04.569845, “Identification of 4-(6-((2-methoxyphenyl)amino)pyrazin-2-yl)benzoic acids as CSNK2A inhibitors with antiviral activity and improved selectivity over PIM3” (bioRxiv, 2023)
Read-outs that look alike come from different tables or passages of the source. Each block holds one molecule with its values, some of them ahead of it.

Key:
Test in all cases: biochemical
Set-up in all cases: Thermal shift (DSF, SYPRO Orange) Tm shift of recombinant kinase domains at 10 uM compound
CLK1 = CLK1 (Homo sapiens, UniProt P49759)
Chain of CLK1 (P49759 whole entry): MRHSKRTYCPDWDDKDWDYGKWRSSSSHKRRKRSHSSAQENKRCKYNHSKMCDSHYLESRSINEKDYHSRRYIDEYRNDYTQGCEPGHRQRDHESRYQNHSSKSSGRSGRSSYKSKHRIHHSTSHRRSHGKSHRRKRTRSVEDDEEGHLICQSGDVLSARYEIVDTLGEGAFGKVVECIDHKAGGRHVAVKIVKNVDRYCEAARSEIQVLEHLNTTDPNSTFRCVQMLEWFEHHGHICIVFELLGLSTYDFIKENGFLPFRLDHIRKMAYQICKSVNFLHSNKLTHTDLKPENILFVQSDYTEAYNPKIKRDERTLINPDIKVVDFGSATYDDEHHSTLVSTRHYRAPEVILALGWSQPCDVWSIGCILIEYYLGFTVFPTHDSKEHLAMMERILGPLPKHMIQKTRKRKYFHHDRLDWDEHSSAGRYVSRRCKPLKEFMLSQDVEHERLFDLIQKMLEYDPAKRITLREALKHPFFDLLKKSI

NEK1 = molecular target: T1, NEK1 (Homo sapiens, UniProt Q96PY6)
T1 sequence (Q96PY6 1-1258): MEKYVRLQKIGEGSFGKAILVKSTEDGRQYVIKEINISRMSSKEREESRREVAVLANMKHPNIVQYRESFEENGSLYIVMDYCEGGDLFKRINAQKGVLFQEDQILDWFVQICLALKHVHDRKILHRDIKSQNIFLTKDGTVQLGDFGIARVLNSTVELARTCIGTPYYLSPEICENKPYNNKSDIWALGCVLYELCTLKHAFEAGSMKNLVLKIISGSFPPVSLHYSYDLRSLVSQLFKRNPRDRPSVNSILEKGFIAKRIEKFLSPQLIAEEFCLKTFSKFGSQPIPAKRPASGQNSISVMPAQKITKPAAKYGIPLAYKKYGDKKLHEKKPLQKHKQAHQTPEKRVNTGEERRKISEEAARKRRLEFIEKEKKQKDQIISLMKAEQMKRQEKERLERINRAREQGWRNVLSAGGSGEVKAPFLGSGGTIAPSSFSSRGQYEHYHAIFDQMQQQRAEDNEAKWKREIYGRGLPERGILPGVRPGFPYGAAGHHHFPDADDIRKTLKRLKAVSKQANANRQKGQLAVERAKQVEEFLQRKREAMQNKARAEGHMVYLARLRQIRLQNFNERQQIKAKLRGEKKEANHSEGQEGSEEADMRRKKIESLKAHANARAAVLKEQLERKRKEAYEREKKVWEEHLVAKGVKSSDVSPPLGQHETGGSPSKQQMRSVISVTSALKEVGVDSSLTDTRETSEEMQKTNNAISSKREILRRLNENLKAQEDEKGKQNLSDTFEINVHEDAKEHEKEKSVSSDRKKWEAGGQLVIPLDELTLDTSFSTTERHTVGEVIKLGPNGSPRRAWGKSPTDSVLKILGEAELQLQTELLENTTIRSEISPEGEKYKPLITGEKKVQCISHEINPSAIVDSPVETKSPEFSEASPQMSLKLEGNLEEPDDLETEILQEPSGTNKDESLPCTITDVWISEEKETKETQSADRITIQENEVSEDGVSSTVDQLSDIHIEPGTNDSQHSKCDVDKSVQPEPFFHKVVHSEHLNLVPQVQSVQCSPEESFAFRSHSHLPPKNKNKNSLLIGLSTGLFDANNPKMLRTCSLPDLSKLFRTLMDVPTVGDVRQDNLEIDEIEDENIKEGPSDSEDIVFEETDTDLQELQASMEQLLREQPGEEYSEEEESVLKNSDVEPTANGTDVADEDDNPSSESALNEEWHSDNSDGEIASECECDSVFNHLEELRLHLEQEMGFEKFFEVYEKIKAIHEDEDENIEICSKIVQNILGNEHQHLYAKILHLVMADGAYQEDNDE

ULK1 = molecular target: T2, ULK1 (Homo sapiens, UniProt O75385)
T2 sequence (O75385 1-1050): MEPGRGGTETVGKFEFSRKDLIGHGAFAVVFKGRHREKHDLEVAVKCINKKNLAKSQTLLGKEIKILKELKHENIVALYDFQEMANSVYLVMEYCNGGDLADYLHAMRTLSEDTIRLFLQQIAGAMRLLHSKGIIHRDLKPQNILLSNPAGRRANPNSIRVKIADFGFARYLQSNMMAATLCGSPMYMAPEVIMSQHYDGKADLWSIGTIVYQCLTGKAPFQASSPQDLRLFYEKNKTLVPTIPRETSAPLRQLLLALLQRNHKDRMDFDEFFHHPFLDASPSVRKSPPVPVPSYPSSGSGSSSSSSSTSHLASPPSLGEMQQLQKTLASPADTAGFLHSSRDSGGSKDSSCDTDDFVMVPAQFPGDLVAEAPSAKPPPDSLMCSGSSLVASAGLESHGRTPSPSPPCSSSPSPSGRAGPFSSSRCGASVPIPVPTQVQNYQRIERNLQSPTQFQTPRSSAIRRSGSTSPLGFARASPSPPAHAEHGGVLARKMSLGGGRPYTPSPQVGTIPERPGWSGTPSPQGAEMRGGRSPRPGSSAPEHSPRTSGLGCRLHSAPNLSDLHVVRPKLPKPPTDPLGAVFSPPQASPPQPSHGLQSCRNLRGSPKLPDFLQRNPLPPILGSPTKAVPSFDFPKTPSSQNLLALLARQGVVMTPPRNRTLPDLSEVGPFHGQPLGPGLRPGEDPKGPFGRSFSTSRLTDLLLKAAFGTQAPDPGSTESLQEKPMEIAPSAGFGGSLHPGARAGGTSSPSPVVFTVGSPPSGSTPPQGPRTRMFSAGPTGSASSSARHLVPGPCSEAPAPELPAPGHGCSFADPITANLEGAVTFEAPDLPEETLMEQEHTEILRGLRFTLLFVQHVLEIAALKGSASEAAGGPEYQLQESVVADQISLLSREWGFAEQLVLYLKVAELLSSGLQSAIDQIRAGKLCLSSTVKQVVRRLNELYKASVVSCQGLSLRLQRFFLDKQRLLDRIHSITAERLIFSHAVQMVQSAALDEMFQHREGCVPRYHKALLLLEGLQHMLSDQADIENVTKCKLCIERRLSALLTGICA

- ΔTm at 10 µM (CLK1; read-out: 7c): 7 °C
- ΔTm at 10 µM (NEK1; read-out: 7c): 0 °C
- ΔTm at 10 µM (ULK1; read-out: 7c): 1 °C
Structure (SMILES): COc1ccc(OC(C)C)cc1Nc1cncc(-c2ccc(C(=O)O)cc2)n1 [7c]

- ΔTm at 10 µM (CLK1; read-out: 6c): 7 °C
- ΔTm at 10 µM (NEK1; read-out: 6c): 0 °C
- ΔTm at 10 µM (ULK1; read-out: 6c): 2 °C
Structure (SMILES): CC(C)Oc1ccc2ccn(-c3cncc(-c4ccc(C(=O)O)cc4)n3)c2c1 [6c]

- ΔTm at 10 µM (CLK1; read-out: 2): 7 °C
- ΔTm at 10 µM (NEK1; read-out: 2): 1 °C
- ΔTm at 10 µM (ULK1; read-out: 2): 3 °C
Structure (SMILES): CC(C)Nc1ccc2cnn(-c3cncc(-c4ccc(C(=O)O)cc4)n3)c2c1 [compound 2, 2]
